Experimental data published in paper PMC9137037 (Frontiers in Oncology, 2022).
Read-outs that look alike come from different tables or passages of the source. Where no end group is shown, it is not given here.

Columns and labels:
[1] = Toxicokinetics of APi2568 in monkey plasma (UHPLC-MS/MS); format: in vivo, cynomolgus monkey; settings: for Cmax: UHPLC-MS/MS; for accumulation ratio (RA): TK profiles on days 1 and 43
Method: The non-human primate studies were carried out by the Charles River Laboratories (Ashland, OH USA). All the cynomolgus monkeys (Macaca fascicularis of Chinese origin) were obtained from Charles River Laboratories (Houston, TX, USA). In brief, the animals were approximately 2–4 years old and at the body weight between 2.2 and 3.1 kg at the initial dosing. The animals were kept at the temperature between 19°C and 24°C, humidity 30%–70%, and with 12 h light and 12 h dark light cycle. The Good manufacturing practice (GMP)-manufactured vaccine was used in the non-human primate study. […] Similar to mouse and dog dosing preparation, after the emulsion was prepared, a drop test was performed on each time of dosing to confirm that the emulsion had been prepared properly. […] The dose volume was split approximately equally across two different sites; 0.5 ml of the dose was intramuscularly (IM) injected into the right posterior lateral thigh, the left dosing was injected into the left site. All the animals’ body weights were monitored weekly after receiving. After each immunization, the animal body temperature was tested 6 and 24 h post each immunization. […] The animal bleed were collected before each time of immunization to monitor the antibody titers. There were two sets of non-human primate studies conducted. The first set of monkey study No.00213515 had 24 monkeys, 12 males, and 12 females divided into 4 groups: vehicle control, low dose 0.5 mg, medium dose 2 mg, and high dose 5 mg. There were 16 monkeys (8 males and 8 females) in the second set of monkey study No. 00213519. The monkeys in the four groups were vaccinated as follows: vehicle control, low dose 25 μg, medium dose 100 μg, and high dose 250 μg.
For the determination of TK parameters, blood samples were collected at various times after dosing analyzed using a validated UHPLC-MS/MS (ultra-high-performance liquid chromatography with tandem mass spectrometry) method, for the quantification of APi2568 in monkey plasma.

[2] = biological target: T1, recombinant human PD-1 (rhPD-1) (Homo sapiens, UniProt Q15116); assay: ELISA of monkey serum with rhPD-1 as capture agent; format: binding; settings: monkey sera
T1 construct: His tag; purchased ACROBiosystems PD1-H5221
Method: For the detection of PD-1 human recombinant protein activity, the human recombinant protein PD-1 (PD1-H5221, HIS tag; ACROBiosystems, Newark, DE, USA) 100 μl at the concentration of […] were coated on the 96 wells plate as an antigen. The following procedures were performed as the description of ELISA.
In a separate experiment, these monkey serum samples were tested using recombinant human PD-1 (rhPD-1) as the capture agent. […] See Table 2 for summary of mouse, dog, and non-human primate experiments.

[3] = female, 2 mg/dose IM as PD1-Vaxx, day 43, mean
[4] = female, 5 mg/dose IM as PD1-Vaxx, day 1
[5] = female, 5 mg/dose IM as PD1-Vaxx, day 43, mean
[6] = male, 0.5 mg/dose IM as PD1-Vaxx, day 43, mean
[7] = male, 2 mg/dose IM as PD1-Vaxx, day 43, mean
[8] = male, 5 mg/dose IM as PD1-Vaxx, day 1
[9] = male, 5 mg/dose IM as PD1-Vaxx, day 43, mean

T1 sequence (Q15116 25-288): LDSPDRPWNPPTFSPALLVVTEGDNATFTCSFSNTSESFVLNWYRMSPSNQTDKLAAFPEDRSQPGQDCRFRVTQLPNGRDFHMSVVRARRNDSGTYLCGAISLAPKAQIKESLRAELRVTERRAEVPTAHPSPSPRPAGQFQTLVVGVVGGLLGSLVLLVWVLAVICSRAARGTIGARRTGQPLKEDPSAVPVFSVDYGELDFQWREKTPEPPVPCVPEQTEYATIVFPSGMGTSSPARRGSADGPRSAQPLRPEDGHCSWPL

In the case of “KLLSLIKGVIVHRLEGVEGPSLGAISLAPKAQIKESLRAEL [MVF-PD-1(92-110)]”, the “plasma concentrations relative to the LLOQ” value ([1]; day 43, 0.5 mg/dose group (both sexes) and 2 mg/dose female monkeys) is reported as at most 6 fold, the T1/2 mean value ([1]; day 43, 2 and 5 mg/dose male monkeys and a single 5 mg/dose female monkey) is reported as “approximately 13 h” and the Cmax/D ([1]; female, 0.5 mg/dose IM as PD1-Vaxx, day 43, mean) is reported as 17.6 (ng/ml)/(mg/dose). For the same sequence, the “AUC(0-t)/D” value [1, 3] was 47.3 (ngh/ml)/(mg/dose), the Cmax/D [1, 3] was 6.92 (ng/ml)/(mg/dose) and the Tlast [1, 3] was 8 h. The “AUC(0-t)/D” value [1, 4] was 3.79 (ngh/ml)/(mg/dose), the Cmax/D [1, 4] was 0.954 (ng/ml)/(mg/dose) and the Tlast [1, 4] was 4 h. For the same sequence, the “AUC(0-t)” value ([1]; female, 5 mg/dose IM as PD1-Vaxx, day 1, AUC calculable in 1 monkey/sex) was 18.9 ng·h/mL, the T1/2 ([1]; female, 5 mg/dose IM as PD1-Vaxx, day 43, calculable for a single female monkey) was 19.6 h and the “AUC(0-t)/D” value [1, 5] was 266 (ngh/ml)/(mg/dose). For the same sequence, the Cmax/D [1, 5] was 31.9 (ng/ml)/(mg/dose), the Tlast [1, 5] was 34 h and the Tmax [1, 5] was 1 h. The Cmax ([1]; female, cynomolgus monkey, plasma, im, 0.5 mg/dose, female, 0.5 mg/dose IM as PD1-Vaxx, day 43, plasma, mean (generally n = 3)) was 8.81 ng/mL, the Tmax ([1]; female, cynomolgus monkey, plasma, im, 0.5 mg/dose, read-out: Tmax) was 2 h and the AUC(0-t) ([1]; female, cynomolgus monkey, plasma, im, 2 mg/dose, female, 2 mg/dose IM as PD1-Vaxx, day 43, mean, one female had significantly lower exposure, read-out: AUC(0-t)) was 94.5 ng·h/mL. For the same sequence, the Cmax ([1]; female, cynomolgus monkey, plasma, im, 2 mg/dose, female, 2 mg/dose IM as PD1-Vaxx, day 43, plasma, mean (generally n = 3)) was 13.8 ng/mL, the Tmax ([1]; female, cynomolgus monkey, plasma, im, 2 mg/dose, read-out: Tmax) was 4 h and the Cmax ([1]; female, cynomolgus monkey, plasma, im, 5 mg/dose, female, 5 mg/dose IM as PD1-Vaxx, day 1, plasma, mean as printed) was 4.77 ng/mL. For the same sequence, the AUC(0-t) ([1]; female, cynomolgus monkey, plasma, im, 5 mg/dose, female, 5 mg/dose IM as PD1-Vaxx, day 43, mean, read-out: AUC(0-t)) was 1330 ng·h/mL, the Cmax ([1]; female, cynomolgus monkey, plasma, im, 5 mg/dose, female, 5 mg/dose IM as PD1-Vaxx, day 43, plasma, mean (generally n = 3)) was 160 ng/mL and the Tmax ([1]; female, cynomolgus monkey, plasma, im, 5 mg/dose, read-out: Tmax) was 1 h. The “AUC(0-t)/D” value [1, 6] was 125 (ngh/ml)/(mg/dose), the Tlast [1, 6] was 8 h and the “AUC(0-t)/D” value [1, 7] was 247 (ngh/ml)/(mg/dose). The Tlast [1, 7] was 24 h, the “AUC(0-t)/D” value [1, 8] was 30.1 (ngh/ml)/(mg/dose) and the Cmax/D [1, 8] was 2.01 (ng/ml)/(mg/dose). For the same sequence, the Tlast [1, 8] was 24 h, the “AUC(0-t)/D” value [1, 9] was 693 (ngh/ml)/(mg/dose) and the Cmax/D [1, 9] was 40.5 (ng/ml)/(mg/dose). The Tlast [1, 9] was 48 h, the Tmax [1, 9] was 1 h and the AUC(0-t) ([1]; male, cynomolgus monkey, plasma, im, 0.5 mg/dose, male, 0.5 mg/dose IM as PD1-Vaxx, day 43, mean, read-out: AUC(0-t)) was 62.3 ng·h/mL. For the same sequence, the Tmax ([1]; male, cynomolgus monkey, plasma, im, 0.5 mg/dose, read-out: Tmax) was 1 h, the half-life ([1]; male, cynomolgus monkey, plasma, im, 2 mg/dose) was 13.1 h and the AUC(0-t) ([1]; male, cynomolgus monkey, plasma, im, 2 mg/dose, male, 2 mg/dose IM as PD1-Vaxx, day 43, mean, read-out: AUC(0-t)) was 494 ng·h/mL. It also gave a Tmax ([1]; male, cynomolgus monkey, plasma, im, 2 mg/dose, read-out: Tmax) of 1 h, a half-life ([1]; male, cynomolgus monkey, plasma, im, 5 mg/dose) of 12.7 h and an AUC(0-t) ([1]; male, cynomolgus monkey, plasma, im, 5 mg/dose, male, 5 mg/dose IM as PD1-Vaxx, day 1, AUC calculable in 1 monkey/sex, read-out: AUC(0-t)) of 151 ng·h/mL. The Cmax ([1]; male, cynomolgus monkey, plasma, im, 5 mg/dose, male, 5 mg/dose IM as PD1-Vaxx, day 1, plasma, mean as printed) was 10.1 ng/mL, the AUC(0-t) ([1]; male, cynomolgus monkey, plasma, im, 5 mg/dose, male, 5 mg/dose IM as PD1-Vaxx, day 43, mean, read-out: AUC(0-t)) was 3460 ng·h/mL and the Cmax ([1]; male, cynomolgus monkey, plasma, im, 5 mg/dose, male, 5 mg/dose IM as PD1-Vaxx, day 43, plasma, mean (generally n = 3)) was 202 ng/mL. For the same sequence, the Tmax ([1]; male, cynomolgus monkey, plasma, im, 5 mg/dose, read-out: Tmax) was 2 h, the “accumulation ratio (RA)” value ([1]; single female monkey, 5 mg/dose) was 121 and the “accumulation ratio (RA)” value ([1]; single male monkey, 5 mg/dose) was 16.3. For the same sequence, the “recognition of rhPD-1 by anti-APi2568 antibody in monkey serum (summary)” value ([2]; days 29, 43, 57) was “high binding ability against rh-PD-1” and the “recognition of rhPD-1 by anti-APi2568 antibody in monkey serum (summary)” value ([2]; days 29, 43, 57, listed as APi2568) was “some of the anti-APi2568 antibody formed in monkeys recognized rhPD-1”.
